Results published in PMC10477861, “Efficient Mining of Anticancer Peptides from Gut Metagenome” (Advanced Science, 2023).
Where no end group is shown, it is not given here.

Tests used:
EFM192A = assay: MTT primary screening of anticancer activity, EFM192A; type: cell-based; conditions: 25 µM pACP, 24 h, maintenance medium 1% FBS, ratio of viability to vehicle (PBS), at least three technical repetitions
Method in brief: (§1)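 Primary screen at one c[…]ntration, 25 µM final. Treatment lasted 24 h in medium with 1% FBS, starting at 60% confluence, followed by MTT viability measurement.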

HCT116 = assay: MTT primary screening of anticancer activity, HCT116; type: cell-based, Human; conditions: 25 µM pACP, 24 h, maintenance medium 1% FBS, ratio of viability to vehicle (PBS), at least three technical repetitions
Method in brief: as §1

Caco2 = assay: MTT primary screening of anticancer activity, Caco2; type: cell-based, Human; conditions: 25 µM pACP, 24 h, maintenance medium 1% FBS, ratio of viability to vehicle (PBS), at least three technical repetitions
Method in brief: as §1

BT474 = assay: MTT primary screening of anticancer activity, BT474; type: cell-based; conditions: 25 µM pACP, 24 h, maintenance medium 1% FBS, ratio of viability to vehicle (PBS), at least three technical repetitions
Method in brief: as §1

MDA-MB-468 = assay: MTT primary screening of anticancer activity, MDA-MB-468; type: cell-based; conditions: 25 µM pACP, 24 h, maintenance medium 1% FBS, ratio of viability to vehicle (PBS), at least three technical repetitions
Method in brief: as §1

CT26 subcutaneous tumors = assay: CT26 subcutaneous xenograft tumor model in nude mice; type: in vivo; set-up: Mean Diff, tumor volume growth, Control vs. peptide (Dunnett's multiple comparisons test): unit not given here; conditions: for tumor size compared to control-treated animals: CT26 subcutaneous tumors, athymic nude mice, two intratumoral injections (day 0, day 2), monitored six days, p <0.05; for tumor size compared to control-treated animals / signs of acute toxicity in tumor-bearing mice / survival of treated mice: 0.80 mg kg-1 pACP2283 or 0.51 mg kg-1 pACP1780; for Mean Diff, tumor volume growth, Control vs. peptide (Dunnett's multiple comparisons test): CT26 tumors in nude mice, intratumoral pACP1780 0.51 mg kg-1 or pACP2283 0.80 mg kg-1 on day 0 and day 2, six mice per group; for signs of acute toxicity in tumor-bearing mice / survival of treated mice: athymic nude mice with CT26 tumors, two intratumoral injections
Procedure: To evaluate the translational relevance of our methodology, we selected these two pACPs for in vivo studies. […] Subcutaneous tumors were established using CT26 cells in athymic nude mice, and the animals were randomized to receive two intratumoral injections of 0.80 mg kg^−1 pACP2283, 0.51 mg kg^−1 pACP1780, or PBS control on day 0 and day 2. The dosage of pACPs was calculated as five times the CC50 of each compound in CT26 cells. Tumor size was monitored daily for six days (Figure 3c).
Six‐week‐old female nude mice were obtained from Beijing HFK Bioscience Co., Ltd. and were acclimated to the laboratory environment for one‐week prior to the commencement of the experiments. All experimental procedures were conducted in a manner that minimized discomfort, distress, and pain to the animals. Mice were group‐housed, with a maximum of five animals per cage, under a light‐dark cycle of 12 h, with a constant temperature of 21–22°C and humidity of 55 ± 5%. They were provided with standard rodent chow and water ad libitum. The Ethics Committee of the Institute of Microbiology, Chinese Academy of Sciences approved all procedures (SQIMCAS2021005).
Murine colorectal carcinoma cell line CT26 was cultured in RPMI‐1640 medium supplemented with 10% fetal bovine serum and 1% penicillin/streptomycin at 37°C and 5% CO2. Tumor formation was induced by injecting was 5×106 ml^−1 CT26 cells into the right forelimb of each mouse. All mice were housed in the same environment with sufficient food and water. Throughout the study, the survival status and tumor progression of the mice on a daily basis were observed. The mice were randomly divided into three groups and received different treatments. CT26 cells were injected on […] for all groups. On Day 0, ACPs (pACP1780: 0.51 mg kg^−1 and pACP2283: 0.80 mg kg^−1) were intratumorally injected, while the Control group received an intratumoral injection of the same volume of PBS. On Day 2, the ACPs were intratumorally injected again, and the Control group received an injection of the same volume of PBS.

HT29 = assay: MTT primary screening of anticancer activity, HT29; type: cell-based, Human; conditions: 25 µM pACP, 24 h, maintenance medium 1% FBS, ratio of viability to vehicle (PBS), at least three technical repetitions
Method in brief: as §1

CT26 cells = assay: Propidium iodide (PI) assay of CT26 membrane damage; type: cell-based, Murine; conditions: pACP1780 6.23 µM, pACP2283 10.56 µM, 1, 2, 6, 12 h, PI 10 µg ml-1 45 min, ex/em 535/617 nm
Procedure: To explore the anticancer effects of pACP2283 and pACP1780 at the cellular level, we co‐cultured confluent CT26 cells with these pACPs.
Cell viability was assessed using propidium iodide (PI, ZS822‐1) according to the manufacturer's instructions. Briefly, CT26 cells were seeded in a 96‐well plate at a density of 1×10^4 cells per well. After 24 h, pACP1780 and pACP2283 were added to the wells at concentrations of 6.23 and 10.56 µM, respectively. The plate was then incubated for 1, 2, 6, and 12 h. Subsequently, the cells were cultured in medium containing 10 µg ml^−1 PI for 45 min. The fluorescence intensity was measured using a CytationTM 5 instrument (Bio Tek) with excitation/emission wavelengths of 535/617 nm.

Sequence | Survival rate of cancer cells in primary screening (EFM192A) | Survival rate of cancer cells in primary screening (HCT116) | Survival rate of cancer cells in primary screening (Caco2) | Survival rate of cancer cells in primary screening (BT474) | Survival rate of cancer cells in primary screening (MDA-MB-468) | tumor size compared to control-treated animals (CT26 subcutaneous tumors) | Mean Diff, tumor volume growth, Control vs. peptide (Dunnett's multiple comparisons test) (CT26 subcutaneous tumors; Day 0) | Mean Diff, tumor volume growth, Control vs. peptide (Dunnett's multiple comparisons test) (CT26 subcutaneous tumors; Day 1) | Mean Diff, tumor volume growth, Control vs. peptide (Dunnett's multiple comparisons test) (CT26 subcutaneous tumors; Day 2) | Mean Diff, tumor volume growth, Control vs. peptide (Dunnett's multiple comparisons test) (CT26 subcutaneous tumors; Day 3) | Mean Diff, tumor volume growth, Control vs. peptide (Dunnett's multiple comparisons test) (CT26 subcutaneous tumors; Day 4) | Mean Diff, tumor volume growth, Control vs. peptide (Dunnett's multiple comparisons test) (CT26 subcutaneous tumors; Day 5) | signs of acute toxicity in tumor-bearing mice (CT26 subcutaneous tumors) | survival of treated mice (CT26 subcutaneous tumors) | Survival rate of cancer cells in primary screening (HT29) | PI fluorescence intensity (damaged cell membranes) (CT26 cells)
RRFAWIGKLQSRKVRNNIRQYRTKIVRQMRRQIFRQMKQKAE [pACP1780] | 0.01 | 0.29 | 0.74 | 0.03 | 0.19 | significantly reduced tumor size | 0 | 0.4906 | 0.7153 | 0.6812 | 1.652 | 2.41 | no overt signs of acute toxicity were observed | all mice survived | 0.33 | significantly increased fluorescence intensity
WWRRAERSVRRFFGTPIGPFPEIFGRRKAHKKKIIAKFDSVNG [pACP2283] | 0.15 | 0.0645 | 1.00 | 0.02 | 0.09 | significantly reduced tumor size | 0 | 0.7285 | 1.385 | 1.698 | 2.95 | 3.362 | no overt signs of acute toxicity were observed | all mice survived | 0.51 | significantly increased fluorescence intensity
